Test results as given in patent publication US8017772B2, “Substituted tetrahydropyrrolopyrazine compounds and the use thereof in the treatment and/or inhibition of pain” (Gruenenthal GmbH, priority 2006, dated 2011).

How the values were obtained:
[1] = tested on: neuropathic pain (cold allodynia); experiment: Bennett model: neuropathic pain (chronic constriction injury, cold allodynia); format: in vivo, mouse or rat; settings: i.v. administration, dose 10 mg/kg
Description: Bennett Model: Neuropathic Pain in the Mouse and in the Rat The study of activity in neuropathic pain was carried out in the Bennett model (chronic constriction injury; Bennett and Xie, 1988, Pain 33: 87-107). Sprague-Dawley rats weighing 140-160 g are provided, under Narcoren narcosis, with four loose ligations of the right nervus ischiaticus. NMRI mice weighing 16-18 g are provided, under Ketavet-Rompun narcosis, with three loose ligations of the right nervus ischiaticus. The animals develop hypersensitivity of the paw innervated by the damaged nerve, and after a one-week recovery phase, the hypersensitivity is quantified over a period of about four weeks by means of a 4° C. cold metal plate (cold allodynia). The animals are observed on the plate for a period of 2 min and the number of reactions of pulling away the damaged paw is measured. […] The size of the group is n=10, the significance of an anti-allodynic action (*=p<0.05) is determined by means of a variance analysis with repeated measurement and a post hoc analysis according to Bonferroni.

hKCNQ2/3 = hKCNQ2/3 (Homo sapiens, UniProt O43525+O43526); experiment: Fluorescence assay using a voltage sensitive dye (BMG); format: cell-based; settings: agonistic activity at 10 μM, CHO-K1 cells expressing KCNQ2/3; read-out: BMG AG %@10 μm
Description: 11. Biological Data 12. Fluorescence Assay Using a Voltage Sensitive Dye
Human CHO-K1 cells expressing KCNQ2/3 channels are cultivated adherently at 37° C., 5% CO2 and 95% humidity in cell culture bottles (e.g. 80 cm^2 TC flasks, Nunc) with MEM Alpha Medium (1×, liquid, Invitrogen, #22571), 10% fetal calf serum (FCS) (Invitrogen, #10270-106, heat-inactivated) and the necessary selection antibiotics.
Before being sown out for the measurements, the cells are washed with a 1×DPBS buffer without Ca^2+/Mg^2+ (e.g. Invitrogen, #14190-094) and detached from the bottom of the culture vessel by means of Accutase (PAA Laboratories, #L11-007) (incubation with Accutase for 15 min at 37° C.). The cell count then present is determined using a CASY™ cell counter (TCC model, Schärfe System) in order subsequently to apply 20,000 cells/well/100 μl of the described nutrient medium to 96-well measuring plates of the Corning™ CellBIND™ type (Flat Clear Bottom Black Polystyrene Microplates, #3340). Incubation is then carried out for one hour at room temperature, without gassing or adjusting the humidity, followed by incubation for 24 hours at 37° C., 5% CO2 and 95% humidity.
The voltage-sensitive fluorescent dye from the Membrane Potential Assay Kit (Red™ Bulk format part R8123 for FLIPR, Molecular Devices™) is prepared by dissolving the contents of a vessel Membrane Potential Assay Kit Red Component A in 200 ml of extracellular buffer (ES buffer, 120 mM NaCl, 1 mM KCl, 10 mM HEPES, 2 mM CaCl2, 2 mM MgCl2, 10 mM glucose; pH 7.4). After removal of the nutrient medium, the cells are washed with 200 μl of ES buffer, then covered with a layer of 100 μl of the dye solution prepared above and incubated for 45 min at room temperature with the exclusion of light.
The fluorescence measurements are carried out with a BMG Labtech FLUOstar™ or BMG Labtech POLARstar™ instrument (525 nm excitation, 560 nm emission, Bottom Read mode). After incubation of the dye, […] of the test substances in the desired concentrations, or 50 μl of ES buffer for control purposes, are introduced into separate cavities of the measuring plate and incubated for 30 min at room temperature while being shielded from light. The fluorescence intensity of the dye is then measured for 5 min and the fluorescence value F1 of each well is thus determined at a given, constant time. 15 μl of a […] KCl solution ([…]) are then added to each well. The change in fluorescence is subsequently measured until all the relevant measured values have been obtained (mainly 5-30 min). At a given time after KCl application, a fluorescence value F2 is determined, in this case at the time of the fluorescence peak.
For calculation, the fluorescence intensity F2 is compared with the fluorescence intensity F1, and the agonistic activity of the target compound on the potassium channel is determined therefrom. F2 and F1 are calculated as follows:
[formula] In order to determine whether a substance has an agonistic effect,
[formula] for example, can be compared with
[formula] determined by adding to the reaction batch only the buffer solution instead of the substance to be tested, determining the value F1K of the fluorescence intensity, adding the potassium ions as described above and measuring a value F2K of the fluorescence intensity. Then F2K and F1K are calculated as follows: […]
A substance has an agonistic activity on the potassium channel when
[formula] is greater than
[formula] Independently of the comparison of
[formula] it is also possible to conclude that a target compound has agonistic activity if an increase in
[formula] is to be observed as the dosage of the target compound increases. Calculations of EC50 and IC50 values are carried out with the aid of “Prism 4” software (GraphPad Software™). The following compounds were tested by way of example: […]

[2] = tested on: mononeuropathic pain (mechanical allodynia); experiment: Chung model: mononeuropathic pain after spinal nerve ligation (mechanical allodynia); format: in vivo, Sprague-Dawley rats; settings: Rattus norvegicus, iv; i.v. administration
Description: Chung Model: Mononeuropathic Pain after Spinal Nerve Ligation
Animals: Male Sprague-Dawley rats (140-160 g) from a commercial breeder (Janvier, Genest St. Isle, France) were kept under a 12:12 h light-dark rhythm. The animals received food and tap water ad libitum. A period of one week was observed between delivery of the animals and the operation. After the operation, the animals were tested several times over a period of 4-5 weeks, a washing-out time of at least one week being observed. Description of the model: Under pentobarbital narcosis (Narcoren®, 60 mg/kg i.p., Merial GmbH, Hallbergmoos, Germany), the left L5, L6 spinal nerves were exposed by removing a section of the paravertebral muscle and a section of the left spinous process of the L5 lumbar vertebral body. […] The pull-back threshold was measured on the ipsi- and/or contra-lateral rear paw by means of an electronic from Frey Filamentes (Somedic A B, Malmö, Sweden). […] The data were determined as % maximum possible effect (% MPE) from the preliminary tests on the individual animals (=0 MPE) and the test values of an independent sham control group (=100% MPE). […] The data were analyzed by variance analysis with repeated measurements and a post hoc analysis according to Bonferroni. […]

activation at 10 µM (hKCNQ2/3): 84%
SMILES: O=C(CCC(=O)N1CCn2cccc2C1c1ccccc1)NCc1cccc(C(F)(F)F)c1 (stereo not drawn) [Example 2, 4-oxo-4-(1-phenyl-3,4-dihydro-1H-pyrrolo[1,2-a]pyrazin-2-yl)-N-(3-trifluoromethyl-benzyl)-butyramide]
% MPE in the Bennett model [1]: 40 % MPE
ED50 [2]: 2.8 mg/kg
